Data on 14 molecules can be found in ChEMBL document CHEMBL4732261, “Design and synthesis of novel (S)-Naproxen hydrazide-hydrazones as potent VEGFR-2 inhibitors and their evaluation in vitro/in vivo breast cancer models” (Bioorg Med Chem, 2021).

Data set [1] has as its system MDA-MB-231. Put plainly: Cytotoxicity against human MDA-MB-231 cells assessed as reduction in cell viability after 48 hrs by MTT assay. Format: functional, cell-based. Particulars: MDA-MB-231, 48 h. A general note: Tetrazolium dyes change colour on reduction, which living cells bring about.
For the next data set, the system named is MCF7. Put plainly: Cytotoxicity against human MCF7 cells assessed as reduction in cell viability after 48 hrs by MTT assay. Format: functional, cell-based. The note with it: MCF7, 48 h.
For data set [2], the system named is MDA-MB-231. Briefly: Induction of morphological changes in human MDA-MB-231 cells assessed as DNA fragmentation at IC50 concentration after 48 hrs by DAPI staining based fluorescent microscopic analysis. The data set is classed as functional, cell-based.
Data set [3] has as its system MDA-MB-231. Briefly: Induction of morphological changes in human MDA-MB-231 cells assessed as nuclear condensation at IC50 concentration after 48 hrs by DAPI staining based fluorescent microscopic analysis. The data set is classed as functional, cell-based.
In data set [4] the test system is MDA-MB-231. Put plainly: Down regulation of VEGFR2 in human MDA-MB-231 cells at IC50 concentration after 48 hrs by Western blot analysis. Format: functional, cell-based. In general terms: In western blotting, separated proteins are transferred to a membrane and probed.
The subject of data set [5] is MDA-MB-231. Put plainly: Induction of apoptosis in human MDA-MB-231 cells assessed as decrease in Bcl2 protein expression at IC50 concentration after 48 hrs by Western blot analysis. The data set is classed as functional, cell-based.
The subject of data set [6] is MDA-MB-231. Put plainly: Induction of cell cycle arrest in human MDA-MB-231 cells assessed as decrease in accumulation of cells at G0/G1 phase after 24 hrs by propidium iodide staining base flow cytometric analysis. Particulars: dose 12.5-50 µM. The data set is classed as functional, cell-based.
The test system of a further data set is HEK293. Put plainly: Cytotoxicity against HEK293 cells assessed as reduction in cell viability after 48 hrs by MTT assay. Format: cell-based. Particulars: Homo sapiens, HEK293, 48 h.
The subject of data set [7] is MDA-MB-231. Briefly: Induction of cell cycle arrest in human MDA-MB-231 cells assessed as increase in accumulation of cells at S phase at 12.5 to 50 uM after 24 hrs by propidium iodide staining base flow cytometric analysis relative to control. Format: functional. Particulars: dose 12.5-50 µM.
Data set [8] deals with MDA-MB-231. Put plainly: Cytotoxicity against human MDA-MB-231 cells assessed as reduction in cell viability at 25 to 400 uM after 48 hrs by MTT assay. Format: functional, cell-based. The note with it: dose 25-400 µM.
The nature of data set [9]: Toxicity in Balb/C mouse implanted with EAC cells assessed as mortality at 60 to 120 mg/kg after 14 days. Format: organism-based. Particulars: in vivo, 336 h, dose 60-120 mg/kg, time 14 day.
Data set [10] in a line: Toxicity in Balb/C mouse assessed as mortality at 30 to 120 mg/kg after 24 hrs. The data set is classed as organism-based. Particulars: in vivo, dose 30-120 mg/kg.
Another data set relates to Ehrlich. Put plainly: Antitumour activity against mouse EAC cells implanted in Balb/C mouse assessed as reduction in tumour volume at 60 to 120 mg/kg after 14 days. Format: functional, organism-based. Particulars: dose 60-120 mg/kg, time 14.0 day.
Data set [11] relates to MDA-MB-231. Put plainly: Induction of cell cycle arrest in human MDA-MB-231 cells assessed as accumulation of cells at G0/G1 phase at 50 uM after 24 hrs by propidium iodide staining base flow cytometric analysis (reference value: 73.2%). Format: functional. A general note: In flow cytometry, cells or beads pass a laser one at a time.
In data set [12] the test system is MDA-MB-231. Briefly: Induction of cell cycle arrest in human MDA-MB-231 cells assessed as accumulation of cells at G2M phase at 12.5 to 50 uM after 24 hrs by propidium iodide staining base flow cytometric analysis relative to control. The data set is classed as functional. The note with it: dose 12.5-50 µM.
The nature of data set [13]: Cytotoxicity against human OSE cells assessed as reduction in cell viability after 48 hrs by MTT assay. The data set is classed as cell-based. Particulars: HOSE.
In data set [14] the test system is MDA-MB-231. Briefly: Induction of cell cycle arrest in human MDA-MB-231 cells assessed as increase in accumulation of cells at M phase at 12.5 to 50 uM after 24 hrs by propidium iodide staining base flow cytometric analysis. Format: functional, cell-based. The note with it: dose 12.5-50 µM.

The source made the active and inactive calls. The calls are words filed in the database; no cut-off is given here.

The IC50 is the concentration that gives 50% inhibition. As for `COc1ccc2cc([C@H](C)C(=O)N/N=C/c3c(F)cccc3F)ccc2c1`, the IC50 in the data set on MDA-MB-231 [1] is 132 µM; with MCF7 it was 91.2 µM.
Turning to `COc1ccc2cc([C@H](C)C(=O)N/N=C/c3cccn3C)ccc2c1`, the concentration for half-maximal inhibition (IC50) with MDA-MB-231 [1] worked out at 129 µM; with MCF7, 352 µM.
For `COc1ccc2cc([C@H](C)C(=O)N/N=C/c3cccc(C(F)(F)F)c3)ccc2c1`, in that order: 55.5 µM and 69.4 µM.
For the molecule `COc1ccc2cc([C@H](C)C(=O)N/N=C/c3cccc(OC(F)(F)F)c3)ccc2c1`, the IC50 with MDA-MB-231 [1] was 157 µM; in the data set with MCF7 it was above 400 µM.
With `COc1ccc2cc([C@H](C)C(=O)N/N=C/c3cc(C(F)(F)F)cc(C(F)(F)F)c3)ccc2c1`, the IC50 with MDA-MB-231 [1] came out at 353 µM; with MCF7 it was 185 µM.
Turning to `COc1ccc2cc([C@H](C)C(=O)N/N=C/c3ccc([N+](=O)[O-])o3)ccc2c1`, the IC50 is above 400 µM in the data set on MDA-MB-231 [1] and 41.8 µM in the data set on MCF7.
Consider `COc1ccc2cc([C@H](C)C(=O)O)ccc2c1` [NAPROXEN], for which the IC50 in the data set on MDA-MB-231 [1] and in the data set on MCF7 was above 400 µM in each case. Moreover, the outcome with MDA-MB-231 [2] and in the data set on MDA-MB-231 [3] was inactive.
Take `COc1ccc2cc([C@H](C)C(=O)N/N=C/c3cc(Br)cs3)ccc2c1`: the IC50 in the data set with MDA-MB-231 [1] was 183 µM; with MCF7 it was above 400 µM.
The corresponding values for `CCc1ccc(/C=N/NC(=O)[C@@H](C)c2ccc3cc(OC)ccc3c2)o1` are 178 µM and 260 µM.
Turning to `COc1ccc2cc([C@H](C)C(=O)N/N=C/c3ccc(C(F)(F)F)cc3)ccc2c1`, the 50% inhibitory concentration (IC50) with MDA-MB-231 [1] turned out to be 67 µM; in the data set with MCF7, 147 µM.
As to `COc1ccc2cc([C@H](C)C(=O)N/N=C/c3ccc(OC(F)(F)F)cc3)ccc2c1`, the IC50 with MDA-MB-231 [1] is 79.5 µM; with MCF7, above 400 µM.
Take `COc1cccc2c1C(=O)c1c(O)c3c(c(O)c1C2=O)C[C@@](O)(C(=O)CO)C[C@@H]3O[C@H]1C[C@H](N)[C@H](O)[C@H](C)O1` [DOXORUBICIN]: the IC50 in the data set on MDA-MB-231 [1] stood at 0.06 µM. Further, the result in the data set with MDA-MB-231 [4] and with MDA-MB-231 [5] was Active.
As to `COc1ccc2cc([C@H](C)C(=O)N/N=C/c3ccccc3OC(F)(F)F)ccc2c1`, the Activity entry is “Dose-dependent effect” in the data set with MDA-MB-231 [6]; 12.3% with MDA-MB-231 [7]; “Non-Toxic” in data set [9]; “Non-Toxic” in data set [10]; 18.2% in the data set with MDA-MB-231 [11]; 14.5% in the data set with MDA-MB-231 [12]. Further, the IC50 is 162 µM in the data set with HEK293, 22.4 µM in the data set on MDA-MB-231 [1], 49 µM in data set [13] and 59.8 µM in the data set on MCF7. For the same molecule, the result in the data set on MDA-MB-231 [8], with Ehrlich, in the data set on MDA-MB-231 [2], with MDA-MB-231 [3], with MDA-MB-231 [4] and in the data set with MDA-MB-231 [14] was Active. The outcome in the data set on MDA-MB-231 [5] was Active.
Turning to `COc1ccc2cc([C@H](C)C(=O)N/N=C/c3ccc(C#N)cc3)ccc2c1`, the results for the 50% inhibitory concentration (IC50) with MDA-MB-231 [1] and in the data set on MCF7 were 389 µM and 60.9 µM, respectively.
